Results from US8816121B2, “GLP-1 receptor stabilizers and modulators” (Receptos, Inc., priority 2010, dated 2014).

Assays:
GLP-1R [1] = target: T1, GLP-1R (Homo sapiens, UniProt P43220); assay: GLP-1 PAM EC20 assay: dosing compound in the presence of fixed GLP-1 (9-36), direct cAMP response; format: cell-based; settings: compound dose response in presence of EC20 GLP-1 (9-36); for EC50: GLP-1R CRE-bla CHO-K1 cells; for EC20 GLP-1 (9-36) PAM max cAMP: total cAMP from standard curve
T1 construct: host or cells: CRE-bla CHO-K1
T1 sequence (P43220 24-463): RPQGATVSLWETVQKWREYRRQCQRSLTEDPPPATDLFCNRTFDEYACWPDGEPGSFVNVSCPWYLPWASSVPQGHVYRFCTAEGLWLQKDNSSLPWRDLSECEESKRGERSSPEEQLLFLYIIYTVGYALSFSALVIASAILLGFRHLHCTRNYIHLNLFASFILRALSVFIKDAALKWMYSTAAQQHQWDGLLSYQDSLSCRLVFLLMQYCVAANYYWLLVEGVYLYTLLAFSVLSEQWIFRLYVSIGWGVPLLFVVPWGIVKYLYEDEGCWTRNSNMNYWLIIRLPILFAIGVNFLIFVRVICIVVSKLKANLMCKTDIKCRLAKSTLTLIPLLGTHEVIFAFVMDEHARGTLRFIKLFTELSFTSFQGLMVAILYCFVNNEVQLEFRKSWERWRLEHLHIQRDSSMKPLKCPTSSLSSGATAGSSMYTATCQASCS
T1 sequence (P01275 100-127 partner limits assumed): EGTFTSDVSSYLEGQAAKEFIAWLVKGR
Experimental: GLP-1 PAM EC20 Assay: Dosing Compound in the Presence of Fixed GLP-1 (9-36)-Direct cAMP Response
GLP-1R CRE-bla CHO-K1 cells were seeded into 384-well white flat bottom plates at 10,000 cells/well/20 μL culture media (same culture media used for PAM shift assay) and incubated for 18 h at 37° C. in 5% CO2. Compound dose response curves (12-point) and a separate 30×EC20 GLP-1 (9-36) stock solution were generated in assay buffer (same assay buffer used for PAM shift assay) in presence of 1.5 mM IBMX and 12.5% DMSO. Cells were washed 1× with assay buffer prior to adding 3 μL of compound dose response curve and 0.5 μL EC20 GLP-1 (9-36) to 12 μL assay buffer and incubated for 30 min at 37° C. Direct detection of cAMP was carried out using DiscoveRx HitHunter cAMP kit according to manufacturer's instructions (substituting 5 μL Antibody portion with 2 μL) and luminescence was read using a SpectraMax M5 plate reader. Luminescence signal was converted to total cAMP using a cAMP standard curve and data was analyzed by non-linear regression to determine the EC50 values for cAMP dose response curves.

GLP-1R [2] = assay: Size exclusion chromatography peak shift assay (stability induction on GLP-1R); format: binding; settings: relative to apo protein and a positive control; effect on dimer stability
Excerpt: Generation of GLP-1R Protein Used in the Stability Induction Assay
A synthetic gene for a modified GLP-1R enhanced for expression in insect cells was created using overlap extension PCR to encode the amino acid sequence containing a signal peptide, N-terminal Flag (Sigma) epitope tag, mGLP-1R, GFP and a 10× histidine tag.
This gene product was cloned into the insect cell transfer vector, pFastBac 1 (Invitrogen) for transposition into the baculovirus DNA hosted in the DH10Bac strain E. coli. […] High titer viral stock of the recombinant GLP-1R baculovirus was recovered and used to infect a healthy population of SF9 insect cells for expression under the control of the ^ie1GP64 baculovirus promoter (EMD biosciences).
Recombinant protein was isolated from the membranes of the insect cells by extraction using 1% β-dodecylmaltopyranoside followed by purification using immobilized metal affinity chromatography resin and standard protocols After elution the protein was analyzed by analytical size exclusion chromatography to determine its retention time relative to an unliganded receptor.
Size Exclusion Chromatography Peak Shift Assay—Characterization of Stability Induction for Compounds
The protein's hydrodynamic radius was analyzed on an analytical size exclusion chromatography column (Sepax Zenix SEC-300 250 mm×4.6 mm column) equilibrated with 20 mM Hepes pH 7.5, 500 mM NaCl, 2% v/v glycerol, 0.05% w/v DDM and 0.01% w/v CHS and attached to a Dionex Ultimate HPLC which continuously pumped running buffer at a flow rate of 0.5 mL/min. The HPLC was equipped with an ultraviolet absorption and a fluorescence detector which enabled detection of total protein absorbance and GFP fluorescent emission respectively. The peak profiles of the GLP-1R in the presence of multiple compounds could be determined from impure mixtures using fluorescence detection.
Each tested compound was assayed for its ability to alter the hydrodynamic radius. This change can manifest as either a positive or negative shift in retention time in the peak shift assay. A positive shift represents a decrease in apparent molecular weight of the complex, while a negative shift represents an increase in size. Compounds that result in a negative shift in retention time (i.e. increased size) may do so by destabilizing the receptor or by causing non-specific aggregation. Compounds that result in a positive shift in retention time (i.e. decreased size) may do so either by stabilizing the receptor in a more compact conformation or by disrupting the oligomeric state (e.g. Dimer→monomer transition).
For this assay we reported the relative shift in retention time of each compound with respect to the apo protein (without ligand) and a positive control.

Compound	EC50 (GLP-1R [1])	EC20 GLP-1 (9-36) PAM max cAMP (GLP-1R [1])	PEAK SHIFT ASSAY (relative shift in retention time, normalized 0 to 5 positive, −5 to 0 negative) (GLP-1R [2])
CCCCCCCOc1ccc(C(=O)Oc2ccc(CC(NC(=O)c3ccc(OC)cc3)C(=O)O)cc2OC)cc1 (stereo not shown) [Compound 2, 3-(4-((4-(heptyloxy)benzoyl)oxy)-3-methoxyphenyl)-2-(4-methoxybenzamido)propanoic acid]	> 20 µM	0.189 µM	
CCCCCCCOc1ccc(C(=O)Oc2ccc(C[C@H](NC(=O)c3ccc(C(C)(C)C)cc3)C(=O)O)cc2)cc1 [Compound 57, (S)-2-(4-(tert-butyl)benzamido)-3-(4-((4-(heptyloxy)benzoyl)oxy)phenyl)propanoic acid]	3.67 µM	0.237 µM	
CCCCCCCOc1ccc(C(=O)Oc2ccc(C[C@H](NC(=O)c3ccc(OC)cc3)C(=O)O)cc2)cc1 [Compound 63]	> 10 µM	0.072 µM	
CCCCCCCOc1ccc(C(=O)Oc2ccc(CC(NC(=O)c3ccc(NC(=O)COCc4ccccc4)cc3)C(=O)O)cc2OC)cc1 (stereo not shown) [Compound 103, 2-(4-(2-(benzyloxy)acetamido)benzamido)-3-(4-((4-(heptyloxy)benzoyl)oxy)-3-methoxyphenyl)propanoic acid]	5.49 µM	0.204 µM	
CCCCCCCOc1ccc(C(=O)Oc2ccc(CC(NC(=O)c3ccc(NC(=O)Cc4ccc(OC)cc4)cc3)C(=O)O)cc2OC)cc1 (stereo not shown) [Compound 120, 3-(4-((4-(heptyloxy)benzoyl)oxy)-3-methoxyphenyl)-2-(4-(2-(4-methoxyphenyl)acetamido)benzamido)propanoic acid]	4.05 µM	0.174 µM	
CCCCCCCOc1ccc(C(=O)Oc2ccc(C[C@H](NC(=O)c3ccc(NC(=O)Cc4ccc(OC)cc4)cc3)C(=O)O)cc2)cc1 [Compound 178, (S)-3-(4-((4-(heptyloxy)benzoyl)oxy)phenyl)-2-(4-(2-(4-methoxyphenyl)acetamido)benzamido)propanoic acid]	6.31 µM	0.098 µM	
CCCCCCCOc1ccc(C(=O)Oc2ccc(C[C@H](NC(=O)c3ccc(NC(=O)COCc4ccccc4)cc3)C(=O)O)cc2)cc1 [Compound 179, (S)-2-(4-(2-(benzyloxy)acetamido)benzamido)-3-(4-((4-(heptyloxy)benzoyl)oxy)phenyl)propanoic acid]	4.84 µM	0.16 µM	
CCCCCCCOc1ccc(C(=O)Oc2ccc([C@H](NC(=O)c3ccc(NC(=O)Cc4ccc(OC)cc4)cc3)C(=O)O)cc2)cc1 [Compound 263, (S)-2-(4-((4-(heptyloxy)benzoyl)oxy)phenyl)-2-(4-(2-(4-methoxyphenyl)acetamido)benzamido)acetic acid]	2.78 µM	0.216 µM	
COc1cc(CC(NC(=O)c2ccc(NC(=O)C3CCCC3)cc2)C(=O)O)ccc1OC(=O)c1ccccc1 (stereo not shown) [Compound 266]			0.88
COc1cc(CC(NC(=O)c2ccc(NC(=O)C3CCCC3)cc2)C(=O)O)ccc1OC(=O)c1ccccc1OC(C)=O (stereo not shown) [Compound 267]			0.25
COc1ccc(C(=O)Oc2ccc(CC(NC(=O)c3ccc(NC(=O)C4CCCC4)cc3)C(=O)O)cc2OC)cc1 (stereo not shown) [Compound 268]			0.46
COc1cc(CC(NC(=O)c2ccc(NC(=O)C3CCCC3)cc2)C(=O)O)ccc1OC(=O)c1ccc(C#N)cc1 (stereo not shown) [Compound 269]			0.34
COc1cc(CC(NC(=O)c2ccc(NC(=O)C3CCCC3)cc2)C(=O)O)ccc1OC(=O)c1ccccc1COC(=O)c1ccccc1 (stereo not shown) [Compound 270]			0
CCCN(CCC)S(=O)(=O)c1ccc(C(=O)Oc2ccc(CC(NC(=O)c3ccc(NC(=O)C4CCCC4)cc3)C(=O)O)cc2OC)cc1 (stereo not shown) [Compound 271]			0.52
COc1cc(CC(NC(=O)c2ccc(NC(=O)C3CCCC3)cc2)C(=O)O)ccc1OC(=O)c1ccc(NC(=O)C2CCCC2)cc1 (stereo not shown) [Compound 272]			−1.15
CCCCCCCOc1ccc(C(=O)Oc2ccc(CC(NC(=O)c3ccc(NC(=O)C4CCCC4)cc3)C(=O)O)cc2OC)cc1 (stereo not shown) [Compound 273, 2-(4-(cyclopentanecarboxamido)benzamido)-3-(4-((4-(heptyloxy)benzoyl)oxy)-3-methoxyphenyl)propanoic acid]	> 10 µM	0.027 µM	0.69
COc1cc(CC(NC(=O)c2ccc(NC(=O)C3CCCC3)cc2)C(=O)O)ccc1OC(=O)c1ccc(NC(C)=O)cc1 (stereo not shown) [Compound 274, 3-(4-((4-acetamidobenzoyl)oxy)-3-methoxyphenyl)-2-(4-(cyclopentanecarboxamido)benzamido)propanoic acid]			0.83
COc1cc(CC(NC(=O)c2ccc(NC(=O)C3CCCC3)cc2)C(=O)O)ccc1OC(=O)c1ccc(-c2ccccc2)cc1 (stereo not shown) [Compound 275]			0
